Reference: ChEMBL document CHEMBL4346705, “(±)-trans-Dihydronarciclasine and (±)-trans-dihydrolycoricidine analogues modified in their ring A: Evaluation of their anticancer activity and a SAR study” (2019)

What was measured:
Format in all cases: functional
CCRF-CEM = test: Antiproliferative activity against human CCRF-CEM cells assessed as cell viability at 10^-5 M incubated for 48 hrs by sulforhodamine B assay relative to control; settings: read-out: Activity
K562 = test: Antiproliferative activity against human K562 cells assessed as cell viability at 10^-5 M incubated for 48 hrs by sulforhodamine B assay relative to control; settings: K562, 48 h, read-out: Activity
RPMI-8226 = test: Antiproliferative activity against human RPMI8226 cells assessed as cell viability at 10^-5 M incubated for 48 hrs by sulforhodamine B assay relative to control; settings: RPMI-8226, 48 h, read-out: Activity
SR = test: Antiproliferative activity against human SR cells assessed as cell viability at 10^-5 M incubated for 48 hrs by sulforhodamine B assay relative to control; settings: read-out: Activity
EKVX = test: Antiproliferative activity against human EKVX cells assessed as cell viability at 10^-5 M incubated for 48 hrs by sulforhodamine B assay relative to control; settings: read-out: Activity
HOP-92 = test: Antiproliferative activity against human HOP92 cells assessed as cell viability at 10^-5 M incubated for 48 hrs by sulforhodamine B assay relative to control; settings: HOP-92, 48 h, read-out: Activity
NCI-H226 = test: Antiproliferative activity against human NCI-H226 cells assessed as cell viability at 10^-5 M incubated for 48 hrs by sulforhodamine B assay relative to control; settings: NCI-H226, 48 h, read-out: Activity
NCI-H23 = test: Antiproliferative activity against human NCI-H23 cells assessed as cell viability at 10^-5 M incubated for 48 hrs by sulforhodamine B assay relative to control; settings: NCI-H23, 48 h, read-out: Activity
NCI-H322M = test: Antiproliferative activity against human NCI-H322M cells assessed as cell viability at 10^-5 M incubated for 48 hrs by sulforhodamine B assay relative to control; settings: read-out: Activity
NCI-H522 = test: Antiproliferative activity against human NCI-H522 cells assessed as cell viability at 10^-5 M incubated for 48 hrs by sulforhodamine B assay relative to control; settings: NCI-H522, 48 h, read-out: Activity
HCT-116 = test: Antiproliferative activity against human HCT116 cells assessed as cell viability at 10^-5 M incubated for 48 hrs by sulforhodamine B assay relative to control; settings: HCT-116, 48 h, read-out: Activity
HT-29 = test: Antiproliferative activity against human HT-29 cells assessed as cell viability at 10^-5 M incubated for 48 hrs by sulforhodamine B assay relative to control; settings: HT-29, 48 h, read-out: Activity
SF-295 = test: Antiproliferative activity against human SF295 cells assessed as cell viability at 10^-5 M incubated for 48 hrs by sulforhodamine B assay relative to control; settings: SF-295, 48 h, read-out: Activity
SF-539 = test: Antiproliferative activity against human SF539 cells assessed as cell viability at 10^-5 M incubated for 48 hrs by sulforhodamine B assay relative to control; settings: SF-539, 48 h, read-out: Activity
U-251 = test: Antiproliferative activity against human U251 cells assessed as cell viability at 10^-5 M incubated for 48 hrs by sulforhodamine B assay relative to control; settings: U-251, 48 h, read-out: Activity
LOX IMVI = test: Antiproliferative activity against human LOXIMVI cells assessed as cell viability at 10^-5 M incubated for 48 hrs by sulforhodamine B assay relative to control; settings: read-out: Activity
SK-MEL-2 = test: Antiproliferative activity against human SK-MEL-2 cells assessed as cell viability at 10^-5 M incubated for 48 hrs by sulforhodamine B assay relative to control; settings: SK-MEL-2, 48 h, read-out: Activity
SK-MEL-5 = test: Antiproliferative activity against human SK-MEL-5 cells assessed as cell viability at 10^-5 M incubated for 48 hrs by sulforhodamine B assay relative to control; settings: SK-MEL-5, 48 h, read-out: Activity
UACC-257 = test: Antiproliferative activity against human UACC257 cells assessed as cell viability at 10^-5 M incubated for 48 hrs by sulforhodamine B assay relative to control; settings: UACC-257, 48 h, read-out: Activity
IGROV-1 = test: Antiproliferative activity against human IGROV1 cells assessed as cell viability at 10^-5 M incubated for 48 hrs by sulforhodamine B assay relative to control; settings: IGROV-1, 48 h, read-out: Activity
OVCAR-4 = test: Antiproliferative activity against human OVCAR4 cells assessed as cell viability at 10^-5 M incubated for 48 hrs by sulforhodamine B assay relative to control; settings: OVCAR-4, 48 h, read-out: Activity
OVCAR-8 = test: Antiproliferative activity against human OVCAR8 cells assessed as cell viability at 10^-5 M incubated for 48 hrs by sulforhodamine B assay relative to control; settings: OVCAR-8, 48 h, read-out: Activity
786-0 = test: Antiproliferative activity against human 786-0 cells assessed as cell viability at 10^-5 M incubated for 48 hrs by sulforhodamine B assay relative to control; settings: 786-0, 48 h, read-out: Activity
ACHN = test: Antiproliferative activity against human ACHN cells assessed as cell viability at 10^-5 M incubated for 48 hrs by sulforhodamine B assay relative to control; settings: read-out: Activity
CAKI-1 = test: Antiproliferative activity against human Caki1 cells assessed as cell viability at 10^-5 M incubated for 48 hrs by sulforhodamine B assay relative to control; settings: CAKI-1, 48 h, read-out: Activity
SN12C = test: Antiproliferative activity against human SN12C cells assessed as cell viability at 10^-5 M incubated for 48 hrs by sulforhodamine B assay relative to control; settings: read-out: Activity
TK-10 = test: Antiproliferative activity against human TK10 cells assessed as cell viability at 10^-5 M incubated for 48 hrs by sulforhodamine B assay relative to control; settings: TK-10, 48 h, read-out: Activity
UO-31 = test: Antiproliferative activity against human UO31 cells assessed as cell viability at 10^-5 M incubated for 48 hrs by sulforhodamine B assay relative to control; settings: UO-31, 48 h, read-out: Activity
MCF7 = test: Antiproliferative activity against human MCF7 cells assessed as cell viability at 10^-5 M incubated for 48 hrs by sulforhodamine B assay relative to control; settings: MCF7, 48 h, read-out: Activity
MDA-MB-231 = test: Antiproliferative activity against human MDA-MB-231 cells assessed as cell viability at 10^-5 M incubated for 48 hrs by sulforhodamine B assay relative to control; settings: MDA-MB-231, 48 h, read-out: Activity
Hs-578T = test: Antiproliferative activity against human Hs 578T cells assessed as cell viability at 10^-5 M incubated for 48 hrs by sulforhodamine B assay relative to control; settings: read-out: Activity
T47D = test: Antiproliferative activity against human T47D cells assessed as cell viability at 10^-5 M incubated for 48 hrs by sulforhodamine B assay relative to control; settings: read-out: Activity

SMILES: CCOc1cc2c(cc1OCC)C1CC(O)C(O)C(O)C1NC2=O (racemic)
- viability at 10 µM (CCRF-CEM): 102%
- viability at 10 µM (K562): 88.4%
- viability at 10 µM (RPMI-8226): 102%
- viability at 10 µM (SR): 91.2%
- viability at 10 µM (EKVX): 102%
- viability at 10 µM (HOP-92): 102%
- viability at 10 µM (NCI-H226): 97.8%
- viability at 10 µM (NCI-H23): 96.1%
- viability at 10 µM (NCI-H322M): 95.2%
- viability at 10 µM (NCI-H522): 89.5%
- viability at 10 µM (HCT-116): 96.3%
- viability at 10 µM (HT-29): 106%
- viability at 10 µM (SF-295): 94.9%
- viability at 10 µM (SF-539): 98%
- viability at 10 µM (U-251): 106%
- viability at 10 µM (LOX IMVI): 92.8%
- viability at 10 µM (SK-MEL-2): 100%
- viability at 10 µM (SK-MEL-5): 99.6%
- viability at 10 µM (UACC-257): 97.5%
- viability at 10 µM (IGROV-1): 107%
- viability at 10 µM (OVCAR-4): 107%
- viability at 10 µM (OVCAR-8): 97.9%
- viability at 10 µM (786-0): 98.9%
- viability at 10 µM (ACHN): 101%
- viability at 10 µM (CAKI-1): 87%
- viability at 10 µM (SN12C): 100%
- viability at 10 µM (TK-10): 118%
- viability at 10 µM (UO-31): 76.4%
- viability at 10 µM (MCF7): 94.4%
- viability at 10 µM (MDA-MB-231): 103%
- viability at 10 µM (Hs-578T): 99.6%
- viability at 10 µM (T47D): 90.2%

SMILES: CCOc1c(OC)cc2c(c1OCC)C(=O)NC1C2CC(O)C(O)C1O (racemic)
- viability at 10 µM (CCRF-CEM): 102%
- viability at 10 µM (K562): 91.8%
- viability at 10 µM (RPMI-8226): 106%
- viability at 10 µM (SR): 90.3%
- viability at 10 µM (EKVX): 97.5%
- viability at 10 µM (HOP-92): 84%
- viability at 10 µM (NCI-H226): 97.4%
- viability at 10 µM (NCI-H23): 99.9%
- viability at 10 µM (NCI-H322M): 98.6%
- viability at 10 µM (NCI-H522): 88.9%
- viability at 10 µM (HCT-116): 100%
- viability at 10 µM (HT-29): 99.6%
- viability at 10 µM (SF-295): 98.7%
- viability at 10 µM (SF-539): 106%
- viability at 10 µM (U-251): 100%
- viability at 10 µM (LOX IMVI): 97.6%
- viability at 10 µM (SK-MEL-2): 103%
- viability at 10 µM (SK-MEL-5): 99.8%
- viability at 10 µM (UACC-257): 103%
- viability at 10 µM (IGROV-1): 103%
- viability at 10 µM (OVCAR-4): 103%
- viability at 10 µM (OVCAR-8): 97.1%
- viability at 10 µM (786-0): 103%
- viability at 10 µM (ACHN): 104%
- viability at 10 µM (CAKI-1): 85.2%
- viability at 10 µM (SN12C): 101%
- viability at 10 µM (TK-10): 97.1%
- viability at 10 µM (UO-31): 81.8%
- viability at 10 µM (MCF7): 95.2%
- viability at 10 µM (MDA-MB-231): 107%
- viability at 10 µM (Hs-578T): 99.3%
- viability at 10 µM (T47D): 106%

SMILES: CCOc1cc2c(c(O)c1OCC)C(=O)NC1C2CC(O)C(O)C1O (racemic)
- viability at 10 µM (CCRF-CEM): 103%
- viability at 10 µM (K562): 93.8%
- viability at 10 µM (RPMI-8226): 102%
- viability at 10 µM (SR): 91.7%
- viability at 10 µM (EKVX): 99.7%
- viability at 10 µM (HOP-92): 78.5%
- viability at 10 µM (NCI-H226): 105%
- viability at 10 µM (NCI-H23): 102%
- viability at 10 µM (NCI-H322M): 97.6%
- viability at 10 µM (NCI-H522): 92.6%
- viability at 10 µM (HCT-116): 104%
- viability at 10 µM (HT-29): 99.7%
- viability at 10 µM (SF-295): 98.7%
- viability at 10 µM (SF-539): 102%
- viability at 10 µM (U-251): 98.4%
- viability at 10 µM (LOX IMVI): 98.5%
- viability at 10 µM (SK-MEL-2): 109%
- viability at 10 µM (SK-MEL-5): 102%
- viability at 10 µM (UACC-257): 99.8%
- viability at 10 µM (IGROV-1): 109%
- viability at 10 µM (OVCAR-4): 103%
- viability at 10 µM (OVCAR-8): 97%
- viability at 10 µM (786-0): 94.1%
- viability at 10 µM (ACHN): 106%
- viability at 10 µM (CAKI-1): 95.7%
- viability at 10 µM (SN12C): 103%
- viability at 10 µM (TK-10): 99.1%
- viability at 10 µM (UO-31): 89.4%
- viability at 10 µM (MCF7): 90.9%
- viability at 10 µM (MDA-MB-231): 103%
- viability at 10 µM (Hs-578T): 89.9%
- viability at 10 µM (T47D): 90.4%

SMILES: CCOc1c(OC)cc2c(c1O)C(=O)NC1C2CC(O)C(O)C1O (racemic)
- viability at 10 µM (CCRF-CEM): 103%
- viability at 10 µM (K562): 91.2%
- viability at 10 µM (RPMI-8226): 103%
- viability at 10 µM (SR): 89.2%
- viability at 10 µM (EKVX): 98%
- viability at 10 µM (HOP-92): 85.2%
- viability at 10 µM (NCI-H226): 99.8%
- viability at 10 µM (NCI-H23): 107%
- viability at 10 µM (NCI-H322M): 103%
- viability at 10 µM (NCI-H522): 92.3%
- viability at 10 µM (HCT-116): 104%
- viability at 10 µM (HT-29): 100%
- viability at 10 µM (SF-295): 102%
- viability at 10 µM (SF-539): 97.7%
- viability at 10 µM (U-251): 96.7%
- viability at 10 µM (LOX IMVI): 98.1%
- viability at 10 µM (SK-MEL-2): 106%
- viability at 10 µM (SK-MEL-5): 101%
- viability at 10 µM (UACC-257): 100%
- viability at 10 µM (IGROV-1): 102%
- viability at 10 µM (OVCAR-4): 107%
- viability at 10 µM (OVCAR-8): 101%
- viability at 10 µM (786-0): 102%
- viability at 10 µM (ACHN): 103%
- viability at 10 µM (CAKI-1): 91.3%
- viability at 10 µM (SN12C): 104%
- viability at 10 µM (TK-10): 93.9%
- viability at 10 µM (UO-31): 92.9%
- viability at 10 µM (MCF7): 92.1%
- viability at 10 µM (MDA-MB-231): 106%
- viability at 10 µM (Hs-578T): 100%
- viability at 10 µM (T47D): 92.8%
